Assay results: article PMC2791543 (Cancer cell, 2009)
Values belong to the molecule of their own block, whether it stands above or below them.

What was measured:
αvβ3 integrin = αvβ3 integrin (Homo sapiens, UniProt P05106+P06756); assay: ELISA affinity measurement on purified αvβ3 integrin; assay type: binding; conditions: compared with iRGD
αvβ5 integrin = αvβ5 integrin (Homo sapiens, UniProt P06756+P18084); assay: ELISA affinity measurement on purified αvβ5 integrin; assay type: binding; conditions: compared with iRGD
αvβ5 integrin, sequence (P06756 31-889 limits assumed): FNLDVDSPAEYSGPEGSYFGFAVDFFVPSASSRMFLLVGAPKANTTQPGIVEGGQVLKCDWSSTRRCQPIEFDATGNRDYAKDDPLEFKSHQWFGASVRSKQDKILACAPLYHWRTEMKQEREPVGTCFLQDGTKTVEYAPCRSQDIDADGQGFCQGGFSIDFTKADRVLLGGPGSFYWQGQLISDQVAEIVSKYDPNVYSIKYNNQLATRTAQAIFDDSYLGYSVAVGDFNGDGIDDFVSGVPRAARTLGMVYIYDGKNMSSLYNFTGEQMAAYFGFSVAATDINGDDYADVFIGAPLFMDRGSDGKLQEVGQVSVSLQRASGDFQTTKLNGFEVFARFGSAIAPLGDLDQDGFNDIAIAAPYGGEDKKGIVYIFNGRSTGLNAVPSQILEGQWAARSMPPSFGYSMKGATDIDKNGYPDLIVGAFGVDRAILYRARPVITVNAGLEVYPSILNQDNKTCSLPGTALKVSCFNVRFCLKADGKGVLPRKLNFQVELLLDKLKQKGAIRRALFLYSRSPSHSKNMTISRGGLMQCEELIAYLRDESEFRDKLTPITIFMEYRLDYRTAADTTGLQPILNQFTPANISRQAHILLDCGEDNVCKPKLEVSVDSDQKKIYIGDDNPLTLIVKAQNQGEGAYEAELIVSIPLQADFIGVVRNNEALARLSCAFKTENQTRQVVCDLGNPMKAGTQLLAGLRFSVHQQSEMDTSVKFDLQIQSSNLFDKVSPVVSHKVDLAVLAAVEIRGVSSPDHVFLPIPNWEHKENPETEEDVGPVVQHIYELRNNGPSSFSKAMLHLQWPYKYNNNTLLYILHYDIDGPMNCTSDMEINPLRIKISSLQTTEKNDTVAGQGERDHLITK
αvβ5 integrin, sequence (P06756 891-1048 limits assumed): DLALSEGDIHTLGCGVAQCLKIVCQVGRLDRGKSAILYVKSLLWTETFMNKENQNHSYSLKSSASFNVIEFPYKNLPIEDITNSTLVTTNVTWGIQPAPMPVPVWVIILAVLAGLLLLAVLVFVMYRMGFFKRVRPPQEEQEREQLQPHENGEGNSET
αvβ5 integrin, sequence (P18084 24-799): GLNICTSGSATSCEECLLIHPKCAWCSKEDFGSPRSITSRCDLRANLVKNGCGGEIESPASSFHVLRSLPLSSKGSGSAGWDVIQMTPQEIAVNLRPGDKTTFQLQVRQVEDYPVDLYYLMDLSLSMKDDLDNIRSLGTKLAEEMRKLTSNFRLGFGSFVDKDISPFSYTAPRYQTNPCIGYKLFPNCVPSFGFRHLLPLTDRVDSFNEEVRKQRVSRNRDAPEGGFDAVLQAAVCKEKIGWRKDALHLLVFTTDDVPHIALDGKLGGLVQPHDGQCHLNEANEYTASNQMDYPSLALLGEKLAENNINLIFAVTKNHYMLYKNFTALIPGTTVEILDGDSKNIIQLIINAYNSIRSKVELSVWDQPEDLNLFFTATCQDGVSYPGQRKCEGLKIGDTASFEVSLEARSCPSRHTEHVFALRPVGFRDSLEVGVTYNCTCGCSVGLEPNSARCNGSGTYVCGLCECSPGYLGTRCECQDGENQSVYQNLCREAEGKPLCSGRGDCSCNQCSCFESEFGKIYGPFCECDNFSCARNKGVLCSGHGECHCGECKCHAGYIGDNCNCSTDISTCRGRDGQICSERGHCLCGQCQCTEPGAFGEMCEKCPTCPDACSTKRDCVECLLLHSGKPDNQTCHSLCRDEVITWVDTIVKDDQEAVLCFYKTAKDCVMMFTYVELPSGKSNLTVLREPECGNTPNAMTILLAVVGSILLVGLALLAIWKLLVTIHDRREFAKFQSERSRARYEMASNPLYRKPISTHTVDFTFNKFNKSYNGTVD

[1] = tested on: de novo pancreatic ductal adenocarcinoma; assay: In vivo peptide homing in PDAC mice; conditions: FAM-labeled peptide, approximately 200 µg, 2 hrs circulation
PPC1 cells = assay: Inhibition of CRGDK phage binding to PPC1 cells; assay type: cell-based, human
Neuropilin-1 = molecular target: T1, Neuropilin-1 (Rattus norvegicus, UniProt Q9QWJ9); assay: competition ELISA
T1 chain: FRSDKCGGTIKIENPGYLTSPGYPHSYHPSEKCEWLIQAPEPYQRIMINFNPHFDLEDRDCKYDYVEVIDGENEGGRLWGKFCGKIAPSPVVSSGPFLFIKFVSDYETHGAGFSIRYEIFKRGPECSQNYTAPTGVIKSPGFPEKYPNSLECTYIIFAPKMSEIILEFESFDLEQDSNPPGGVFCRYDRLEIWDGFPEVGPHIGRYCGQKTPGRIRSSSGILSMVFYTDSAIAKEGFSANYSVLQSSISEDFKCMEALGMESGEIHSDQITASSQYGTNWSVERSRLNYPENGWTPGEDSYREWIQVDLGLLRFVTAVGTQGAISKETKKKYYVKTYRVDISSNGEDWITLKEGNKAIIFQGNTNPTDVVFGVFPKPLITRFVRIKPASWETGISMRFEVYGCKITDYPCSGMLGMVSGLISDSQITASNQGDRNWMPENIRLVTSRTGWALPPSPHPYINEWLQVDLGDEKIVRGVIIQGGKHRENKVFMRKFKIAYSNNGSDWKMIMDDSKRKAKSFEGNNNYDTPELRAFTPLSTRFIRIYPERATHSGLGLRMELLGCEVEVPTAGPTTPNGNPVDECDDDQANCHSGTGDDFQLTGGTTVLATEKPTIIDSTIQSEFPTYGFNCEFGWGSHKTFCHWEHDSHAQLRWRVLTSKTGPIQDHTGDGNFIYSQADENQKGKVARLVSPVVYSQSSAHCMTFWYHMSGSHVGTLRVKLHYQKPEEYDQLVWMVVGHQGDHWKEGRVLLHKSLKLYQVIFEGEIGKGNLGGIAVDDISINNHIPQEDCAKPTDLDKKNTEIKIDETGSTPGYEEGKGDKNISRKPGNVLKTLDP

αvβ3 integrin, sequence (P06756 31-889 limits assumed): as the sequence (P06756 31-889 limits assumed) above
αvβ3 integrin, sequence (P06756 891-1048 limits assumed): as the sequence (P06756 891-1048 limits assumed) above
αvβ3 integrin, sequence (P05106 27-788): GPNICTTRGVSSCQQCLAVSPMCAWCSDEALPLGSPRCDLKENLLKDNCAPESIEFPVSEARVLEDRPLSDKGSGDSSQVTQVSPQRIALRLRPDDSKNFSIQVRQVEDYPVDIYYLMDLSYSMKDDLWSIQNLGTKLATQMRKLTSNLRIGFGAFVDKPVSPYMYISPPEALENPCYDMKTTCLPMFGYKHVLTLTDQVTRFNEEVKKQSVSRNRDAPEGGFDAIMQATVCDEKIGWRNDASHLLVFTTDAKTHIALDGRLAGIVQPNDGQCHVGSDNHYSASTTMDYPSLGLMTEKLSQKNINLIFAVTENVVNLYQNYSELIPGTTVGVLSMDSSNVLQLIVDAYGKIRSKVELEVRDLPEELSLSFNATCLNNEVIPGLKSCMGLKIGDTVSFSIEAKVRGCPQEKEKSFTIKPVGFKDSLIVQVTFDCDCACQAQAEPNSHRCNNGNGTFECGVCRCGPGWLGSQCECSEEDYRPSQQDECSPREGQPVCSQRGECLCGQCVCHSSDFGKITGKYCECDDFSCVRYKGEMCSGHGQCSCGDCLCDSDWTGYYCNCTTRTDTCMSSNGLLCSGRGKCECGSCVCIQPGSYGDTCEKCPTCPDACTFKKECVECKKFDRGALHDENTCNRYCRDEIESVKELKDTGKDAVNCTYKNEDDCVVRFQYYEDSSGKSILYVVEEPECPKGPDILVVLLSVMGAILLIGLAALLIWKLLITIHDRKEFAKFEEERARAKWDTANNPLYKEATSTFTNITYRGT

affinity for αvβ3, by ability to block iRGD binding (αvβ3 integrin): in the same range
affinity for αvβ5, by ability to block iRGD binding (αvβ5 integrin): in the same range
Molecule: CRGDC

Molecule: CRGEKGPDC [iRGE]
tumor fluorescence after i.v. injection [1]: minimal tumor fluorescence

Molecule: RPARPAR
inhibition of CRGDK phage binding to PPC1 cells by peptide (PPC1 cells): inhibited

Kd (Neuropilin-1): 1400 nM
Molecule: CRGDK
